Key:
Format in all cases: biochemical
[1] = molecular target: T1, GCK "Germinal central kinase" (Homo sapiens, UniProt Q12851); assay: in vitro kinase profiling (MRC Dundee), […], duplicate
T1 construct: gene MAP4K2; recombinant kinase (BC047865)
T1 sequence (Q12851 1-820): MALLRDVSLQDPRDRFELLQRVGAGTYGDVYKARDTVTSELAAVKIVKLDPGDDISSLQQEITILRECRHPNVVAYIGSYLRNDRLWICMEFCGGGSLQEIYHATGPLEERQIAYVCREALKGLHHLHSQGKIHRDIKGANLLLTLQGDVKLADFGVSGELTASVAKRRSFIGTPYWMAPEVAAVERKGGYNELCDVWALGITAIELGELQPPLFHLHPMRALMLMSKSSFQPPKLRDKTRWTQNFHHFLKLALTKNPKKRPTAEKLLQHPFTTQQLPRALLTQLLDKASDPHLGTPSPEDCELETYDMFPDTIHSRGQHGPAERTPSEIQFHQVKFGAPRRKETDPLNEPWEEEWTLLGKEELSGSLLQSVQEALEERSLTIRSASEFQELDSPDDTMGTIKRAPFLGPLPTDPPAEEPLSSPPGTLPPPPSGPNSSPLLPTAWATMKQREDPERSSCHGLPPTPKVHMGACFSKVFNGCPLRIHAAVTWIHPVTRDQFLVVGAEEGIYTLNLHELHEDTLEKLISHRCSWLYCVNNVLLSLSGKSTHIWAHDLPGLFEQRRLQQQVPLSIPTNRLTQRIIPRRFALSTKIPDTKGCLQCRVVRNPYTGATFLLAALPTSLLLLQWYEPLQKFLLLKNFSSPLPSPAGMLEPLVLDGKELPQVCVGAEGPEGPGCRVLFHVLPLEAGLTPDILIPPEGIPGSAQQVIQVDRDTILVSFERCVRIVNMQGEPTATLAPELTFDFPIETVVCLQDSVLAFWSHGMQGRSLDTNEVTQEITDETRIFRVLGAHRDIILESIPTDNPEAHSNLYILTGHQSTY

[2] = molecular target: T2, TrkA "Tropomyosin Related kinase A" (Homo sapiens, UniProt P04629); assay: as above
T2 construct: gene NTRK1; recombinant kinase (NM_001007792.1)
T2 sequence (P04629 33-796): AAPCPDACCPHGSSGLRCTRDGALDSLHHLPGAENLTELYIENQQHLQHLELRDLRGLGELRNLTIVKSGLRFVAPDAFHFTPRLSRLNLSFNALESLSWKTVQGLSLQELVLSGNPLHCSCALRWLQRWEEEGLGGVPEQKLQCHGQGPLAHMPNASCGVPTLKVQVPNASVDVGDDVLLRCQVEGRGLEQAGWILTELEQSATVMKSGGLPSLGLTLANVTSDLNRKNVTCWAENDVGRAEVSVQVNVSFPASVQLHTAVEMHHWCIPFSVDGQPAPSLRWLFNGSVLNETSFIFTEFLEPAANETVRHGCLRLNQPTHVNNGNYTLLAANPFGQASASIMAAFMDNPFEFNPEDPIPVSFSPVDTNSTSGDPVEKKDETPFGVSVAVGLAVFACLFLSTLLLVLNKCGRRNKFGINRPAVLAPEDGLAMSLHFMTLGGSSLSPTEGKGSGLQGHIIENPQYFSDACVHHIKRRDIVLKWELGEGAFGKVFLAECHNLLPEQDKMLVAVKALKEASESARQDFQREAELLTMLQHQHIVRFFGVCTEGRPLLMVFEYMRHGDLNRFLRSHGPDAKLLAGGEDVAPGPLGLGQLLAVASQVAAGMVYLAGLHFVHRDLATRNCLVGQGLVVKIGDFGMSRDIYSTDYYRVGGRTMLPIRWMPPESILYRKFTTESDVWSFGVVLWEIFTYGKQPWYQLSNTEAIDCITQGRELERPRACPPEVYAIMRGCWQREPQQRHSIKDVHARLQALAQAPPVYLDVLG

[3] = molecular target: T3, Tak1 "Transforming growth factor beta activated kinase" (Homo sapiens, UniProt O43318); assay: as above
T3 construct: gene MAP3K7; recombinant kinase (NM_003188)
T3 sequence (O43318 1-606): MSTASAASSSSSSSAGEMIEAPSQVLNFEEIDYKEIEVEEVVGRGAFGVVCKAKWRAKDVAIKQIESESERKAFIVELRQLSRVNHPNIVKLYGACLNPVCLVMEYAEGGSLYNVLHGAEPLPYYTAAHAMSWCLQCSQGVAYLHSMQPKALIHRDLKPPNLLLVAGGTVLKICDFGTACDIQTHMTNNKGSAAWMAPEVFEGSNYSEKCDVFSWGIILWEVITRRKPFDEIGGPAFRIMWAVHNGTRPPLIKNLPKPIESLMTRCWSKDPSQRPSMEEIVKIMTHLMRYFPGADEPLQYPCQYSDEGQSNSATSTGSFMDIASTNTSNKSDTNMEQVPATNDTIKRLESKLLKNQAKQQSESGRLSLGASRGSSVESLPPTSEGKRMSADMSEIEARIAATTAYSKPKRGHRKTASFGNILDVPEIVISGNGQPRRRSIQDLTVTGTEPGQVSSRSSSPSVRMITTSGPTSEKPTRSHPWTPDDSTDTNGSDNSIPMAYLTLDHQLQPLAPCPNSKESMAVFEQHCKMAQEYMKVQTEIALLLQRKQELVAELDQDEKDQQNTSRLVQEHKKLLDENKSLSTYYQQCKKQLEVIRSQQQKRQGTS

[4] = molecular target: T4, NUAK1-ARK5 "SnF1-like Kinase" (Homo sapiens, UniProt O60285); assay: as above
T4 construct: recombinant kinase (NM_014840)
T4 sequence (O60285 1-661): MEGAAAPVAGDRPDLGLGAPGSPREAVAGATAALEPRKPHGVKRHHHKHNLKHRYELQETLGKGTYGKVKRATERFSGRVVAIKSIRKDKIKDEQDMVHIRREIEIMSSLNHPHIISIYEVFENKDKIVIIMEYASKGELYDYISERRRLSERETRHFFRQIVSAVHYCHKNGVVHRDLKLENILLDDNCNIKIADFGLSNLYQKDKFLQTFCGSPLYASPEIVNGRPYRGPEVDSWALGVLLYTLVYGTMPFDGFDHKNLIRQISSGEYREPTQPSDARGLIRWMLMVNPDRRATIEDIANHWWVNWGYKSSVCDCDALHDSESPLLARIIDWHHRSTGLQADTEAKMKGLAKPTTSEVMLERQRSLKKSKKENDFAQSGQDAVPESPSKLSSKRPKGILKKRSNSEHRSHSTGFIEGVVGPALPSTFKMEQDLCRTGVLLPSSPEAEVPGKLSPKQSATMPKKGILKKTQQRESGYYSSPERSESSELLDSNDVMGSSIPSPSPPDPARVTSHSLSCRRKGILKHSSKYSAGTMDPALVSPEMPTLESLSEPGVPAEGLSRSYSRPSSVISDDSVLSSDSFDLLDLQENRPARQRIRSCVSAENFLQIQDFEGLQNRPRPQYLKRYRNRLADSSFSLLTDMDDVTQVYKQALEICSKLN

[5] = molecular target: T5, aurora kinase A (Homo sapiens, UniProt O14965); assay: in vitro histone H3 phosphorylation by recombinant kinase domain; details: read-out: % inhibition at 1.5 μM
T5 construct: gene AURKA; recombinant kinase domain
T5 sequence (O14965 133-383 limits assumed): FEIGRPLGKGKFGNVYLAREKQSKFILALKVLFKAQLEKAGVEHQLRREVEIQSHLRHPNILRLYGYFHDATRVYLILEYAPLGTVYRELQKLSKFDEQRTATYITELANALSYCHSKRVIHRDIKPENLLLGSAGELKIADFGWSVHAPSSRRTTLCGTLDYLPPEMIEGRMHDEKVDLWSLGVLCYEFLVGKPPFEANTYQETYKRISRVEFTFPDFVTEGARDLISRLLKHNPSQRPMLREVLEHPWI

| Structure (SMILES) | remaining activity at 1 µM [1] [%] | remaining activity at 1 µM [2] [%] | remaining activity at 1 µM [3] [%] | remaining activity at 1 µM [4] [%] | inhibition at 1.5 µM [5] [%] |
| --- | --- | --- | --- | --- | --- |
| Cc1cncc2c1[nH]c1ccc3cc(OCCN(C)C)ccc3c12 [C2] | 32 ± 1 | 36 ± 2 | 55 ± 3 | 53 ± 2 | – |
| O=c1cc(-c2ccc(O)cc2)oc2cc(O)cc(O)c12 [apigenin] | – | – | – | – | 33 |
| O=c1cc(-c2ccc(O)c(O)c2)oc2cc(O)cc(O)c12 [luteonin] | – | – | – | – | 50 |

— publication PMC4009756, “In Vitro High Throughput Screening, What Next? Lessons from the Screening for Aurora Kinase Inhibitors” (Biology, 2014)
